Results from PubChem BioAssay AID489041 (Sanford-Burnham Center for Chemical Genomics, 2010).
Active and inactive are the calls of the source. How the calls were made is not given here.

test system: HEK-293T NF-kB luciferase reporter counterscreen, luminescence; test: inhibitors of HEK-293T NF-kB luciferase – HEK-293T cells, luminescence, counter-screen for T-cell antigen receptor NF-kB inhibitors, dose response (AID 489041)

Structure (SMILES) | IC50
COC(=O)c1ccccc1NC(=O)Cn1c(-c2nonc2N)nc2ccccc21 | 3.77 µM
CC1(C)C[C@H]2C=C(C=O)[C@]3(C=O)C[C@]3(C)[C@H]2C1 | 31.1 µM (inactive)
COc1ccc(C)cc1NS(=O)(=O)c1ccc(-c2cnc(C3CC3)o2)cc1 | 0.84 µM
CC(=O)O[C@H]1C(=O)[C@@]2(C)C([C@H](OC(=O)c3ccccc3)[C@]3(O)C[C@H](OC(=O)[C@H](O)[C@@H](NC(=O)c4ccccc4)c4ccccc4)C(C)=C1C3(C)C)[C@]1(OC(C)=O)CO[C@@H]1C[C@H]2O (stereo partly specified) | > 80 µM (inactive)
Nc1nc(-c2ccccc2)cc(N2CCCCC2)n1 | 2.23 µM
COC(=O)c1nn(-c2ccc3c(c2)CCN3C(C)=O)cc1O | 3.87 µM
C=C(C)[C@@]12OC3(c4ccccc4)O[C@@H]1C1[C@@H]4O[C@]4(CO)[C@@H](O)[C@]4(O)C(=O)C(C)=C[C@H]4[C@@]1(O3)[C@H](C)[C@H]2OC(=O)/C=C/C=C/c1ccccc1 (stereo partly specified) | < 0.16 µM
CC(C)(C)c1csc(Sc2ccc([N+](=O)[O-])cn2)n1 | 36.1 µM (inactive)
Cc1ccc(-n2ncc3c(N4CCN(c5ccccc5)CC4)ncnc32)c(C)c1 | 3.24 µM
COc1cc(Cn2c(-c3nonc3N)nc3ccccc32)ccc1C | 1.08 µM
COc1cccc(/C=N/Nc2ccc(C(=O)O)cc2)c1O | 0.41 µM
COc1cc2c(c(OC)c1OC)-c1ccc(OC)c(=O)cc1[C@@H](N(C)CC#CCO)CC2 | 0.56 µM
Cc1c(C(=O)N/N=C/c2c(O)ccc3ccccc23)nnn1-c1nonc1N | > 80 µM (inactive)
CCN(CC)c1ccc(NC(=O)c2cc(OC)cc(OC)c2)c(C)c1 | 6 µM
O=C(Nc1cccc(C(F)(F)F)c1)c1sc(Cl)nc1C(F)(F)F | 40.6 µM (inactive)
CN(C)S(=O)(=O)c1ccc(Nc2nc(C3CC3)nc3c2nnn3Cc2ccccc2Cl)cc1 | 4.04 µM
CC[n+]1cc(C)ccc1/C=C/c1ccc(N(C)C)cc1 | 3.97 µM
CN(C)c1ccc2c(c1)OC(N)=C(C#N)C2c1cccc(F)c1 (stereo unspecified) | 1.45 µM
CCCCCn1c2c(c(=N)c3ccccc31)CCC2 | 1.75 µM
COc1cccc(-c2cc(=O)c3cc(NC(=O)c4ccccc4)ccc3[nH]2)c1 | > 80 µM (inactive)
CCCCCCCCC[n+]1cccc2c3ccccc3ccc21 | 0.55 µM
C=CCn1c(SCc2c(C)noc2C)nc2ccccc2c1=O | 2.82 µM
Cc1cc(-c2ccc(S(=O)(=O)N(C)c3ccc(C)c(C)c3)s2)on1 | 7.86 µM
CC(=O)c1c(C)[nH]c(C(=O)OCC(=O)Nc2ccc(C)cc2[N+](=O)[O-])c1C | 0.79 µM
Cc1ccc(C(=O)Nc2cnc3ccccc3c2)cc1 | 0.83 µM
CN(C)c1ccc(-c2nn3c(-c4ccccc4Cl)nnc3s2)cc1 | 19.8 µM

Structure (SMILES) | IC50
CCCC(=O)NC(c1ccc(C)cc1)c1ccc2cccnc2c1O (stereo unspecified) | 0.43 µM
Cc1cccc(NS(=O)(=O)c2ccc(-c3cnc(C4CC4)o3)cc2)c1 | 3.27 µM
CS(=O)(=O)c1ccc(Sc2nc3ccccc3s2)c([N+](=O)[O-])c1 | 17.1 µM
CCOC(=O)COc1cccc2c(=O)n(CC(=O)NCc3ccc(F)cc3)ccc12 | < 0.16 µM
CC(C)c1oc(=O)cc2c1[C@@H](O)[C@H]1OC(=O)[C@@]3(C)CC[C@@H](O)[C@@]2(C)C13 (stereo partly specified) | 4.59 µM
Cc1ccc(-c2cc3c(N=O)c4ccccc4c-3n[nH]2)cc1 | 0.88 µM
O=c1oc2ccccc2cc1-c1cn(-c2ccccc2)c(=S)[nH]1 | 4.59 µM
C=C1C(O)[C@@H]2O[C@]3(CC[C@H](/C=C/C(C)[C@@H]4CC(C)=CC5(O[C@H](C[C@@](C)(O)CO)CCC5O)O4)O3)CC[C@H]2O[C@@H]1C(O)CC(C)[C@H]1OC2(CCCCO2)CCC1C (stereo partly specified) | < 0.16 µM
O=C(COc1ccc(C(=O)c2ccccc2)cc1)NCc1ccc(F)cc1 | 6.31 µM
Cc1cc(NC(=O)CSc2nc3ccccc3c(=O)n2C2CCCC2)no1 | 19.1 µM
CCCCCOC(=O)c1[nH]c2c(c1C)C(=O)CC(c1ccco1)C2 (stereo unspecified) | 0.41 µM
Cc1ccc(/C=N/NC(=O)C2COc3ccccc3O2)s1 (stereo unspecified) | 51.6 µM (inactive)
Cc1cc(C)nc(SCC(=O)Nc2ccnc3ccccc23)n1 | 9.08 µM
CCCCCCCCCCCCCCCC[n+]1ccc(/C=N/O)cc1 | 20.7 µM (inactive)
COc1ccc(OC)c2c1C(=O)C(Cl)=C(Cl)C2=O | 3.96 µM
CCOc1ccc2c(c1)OC(c1ccc(C)cc1)(C(F)(F)F)NC2=O (stereo unspecified) | 5.57 µM
CCC(C)(C)c1ccc(OCCCC[n+]2cccc(C)c2C)c(C(C)(C)CC)c1 | 4.01 µM
COc1ccc(/C=N/NC(=O)COc2ccccc2-c2ccccc2)cc1 | 4.75 µM
CC(C)(C)c1ccc(C(=O)O/N=C(\N)c2ccccc2)cc1 | 0.31 µM
COc1ccc([N+](=O)[O-])cc1Nc1c2ccccc2nc2ccccc12 | 1.38 µM
COc1cc(C(=O)Nc2ccc3c(c2)ncn3C)cc(OC)c1OC | 14.7 µM
CCn1c2ccccc2c2cc(NC(=O)c3cc(OC)c(OC)c(OC)c3)ccc21 | 3.97 µM
O=C(COc1ccccc1-c1ccccc1)N/N=C/c1cccc2ccccc12 | 8 µM
Cc1c(C(=O)N/N=C/c2ccc(Cl)cc2)[nH]c2ccc(Cl)cc12 | 1.95 µM
O=C(Nc1ccc(C(F)(F)F)cc1)c1cccn(Cc2ccc3c(c2)OC(F)(F)O3)c1=O | 22.5 µM (inactive)
